Source: US11161856B2 (H. Lundbeck A/S, priority 2017, dated 2021)

Tests used:
ABHD6 = target: T1, ABHD6 (Mus musculus, UniProt Q8R2Y0); test: In vitro competitive activity-based protein profiling, mouse brain proteome (ABHD6); type: biochemical; conditions: mouse brain proteome; concentration not given (μM)
T1 construct: Brain; from tissue; host or cells: mouse brain proteome
T1 sequence (Q8R2Y0 1-336): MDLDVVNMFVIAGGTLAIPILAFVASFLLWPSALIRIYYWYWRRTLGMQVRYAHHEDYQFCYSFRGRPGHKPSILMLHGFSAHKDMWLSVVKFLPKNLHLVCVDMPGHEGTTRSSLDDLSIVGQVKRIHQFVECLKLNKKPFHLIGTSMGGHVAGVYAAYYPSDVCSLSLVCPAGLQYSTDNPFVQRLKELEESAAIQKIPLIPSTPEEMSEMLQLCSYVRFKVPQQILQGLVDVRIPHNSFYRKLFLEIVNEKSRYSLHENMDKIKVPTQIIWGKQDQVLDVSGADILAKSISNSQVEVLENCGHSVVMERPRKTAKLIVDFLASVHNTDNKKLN
Description: [The source words this procedure for another target and reports this target under the same test.] In Vitro Competitive Activity-Based Protein Profiling.
Proteomes (human prefrontal cortex or cell membrane fractions) (50 μL, 1.0 mg/mL total protein concentration) were preincubated with varying concentrations of inhibitors at 37° C. After 30 min, FP-Rh or HT-01 (1.0 μL, 50 μM in DMSO) was added and the mixture was incubated for another 30 min at room temperature. Reactions were quenched with SDS loading buffer (15 μL-4×) and run on SDS-PAGE.

MGLL = target: T2, MGLL (Mus musculus, UniProt O35678); test: In vitro competitive activity-based protein profiling, mouse brain proteome (MGLL); type: biochemical; conditions: for % Inh MGLL Brain (Mouse, μM): concentration not given (μM)
T2 construct: Brain; from tissue; host or cells: mouse brain proteome
T2 sequence (O35678 1-303): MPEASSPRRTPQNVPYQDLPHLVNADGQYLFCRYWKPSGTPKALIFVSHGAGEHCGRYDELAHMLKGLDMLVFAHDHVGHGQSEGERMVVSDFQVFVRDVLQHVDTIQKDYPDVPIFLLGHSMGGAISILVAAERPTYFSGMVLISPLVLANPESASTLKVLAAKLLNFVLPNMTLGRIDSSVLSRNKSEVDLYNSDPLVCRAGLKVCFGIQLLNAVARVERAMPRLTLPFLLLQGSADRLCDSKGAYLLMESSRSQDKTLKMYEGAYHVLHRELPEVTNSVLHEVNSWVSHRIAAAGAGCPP

| % Inh ABHD6 Brain (Mouse, μM) (ABHD6) | % Inh MGLL Brain (Mouse, μM) (MGLL) | inhibition at 10 µM (MGLL; at 10 uM, read-out: % Inh MGLL Brain (Mouse)) [%] | SMILES |
| --- | --- | --- | --- |
| # (# is ≤25%) | ### (### is ≥75%) |  | CS(=O)(=O)N1CCC2(CCN(c3cc(C(F)(F)F)ccc3CN3CCN(C(=O)OC(C(F)(F)F)C(F)(F)F)CC3)C2)CC1 [Example 196, 1,1,1,3,3,3-Hexafluoropropan-2-yl 4-(2-(8-(methylsulfonyl)-2,8-diazaspiro[4.5]decan-2-yl)-4-(trifluoromcthyl)benzyl)pipera zinc-1-carboxylate] |
| # (# is ≤25%) | ### (### is ≥75%) |  | CS(=O)(=O)N1CCCC12CCN(c1cc(C(F)(F)F)ccc1CN1CCN(C(=O)OC(C(F)(F)F)C(F)(F)F)CC1)CC2 [Example 209, 1,1,1,3,3,3-Hexafluoropiopan-2-yl 4-(2-(1-(methylsulfonyl)-1.8-diazaspiro[4.5]decan-8-yl)-4-(trifluoromethyl)benzyl) piperazine-1-carboxylate] |
| # (# is ≤25%) | ### (### is ≥75%) |  | CN1CCCC12CCN(c1cc(C(F)(F)F)ccc1CN1CCN(C(=O)OC(C(F)(F)F)C(F)(F)F)CC1)CC2 [Example 215, 1,1,1,3,3,3-Hexafluoropropan-2-yl 4-(2-(1-methyl-1,8-diazaspiro[4.5]decan-8-yl)-4-(trifluoromethyl)benzyl) piperazine-1-carboxylate] |
| # (# is ≤25%) | ### (### is ≥75%) |  | CC(=O)N1CCC2(CCN(c3cc(C(F)(F)F)ccc3CN3CCN(C(=O)OC(C(F)(F)F)C(F)(F)F)CC3)CC2)C1 [Example 189, 1,1,1,3,3,3-Hexafluoropropan-2-yl 4-(2-(2-acetyl-2,8-diazaspiro[4.5]decan-8-yl)-4-(trifliioromethyl)benzyl) piperazine-1-carboxylate] |
| ### (### is ≥75%) |  | 25 to 75 | CS(=O)(=O)N1CCC2(CCN(c3cc(Cl)cc(CN4CCCC45CN(C(=O)OC(C(F)(F)F)C(F)(F)F)C5)c3)CC2)C1 [Example 232] |

More lines, now with the values behind:

| SMILES | % Inh ABHD6 Brain (Mouse, μM) (ABHD6) | % Inh MGLL Brain (Mouse, μM) (MGLL) | inhibition at 10 µM (MGLL; at 10 uM, read-out: % Inh MGLL Brain (Mouse)) [%] |
| --- | --- | --- | --- |
| O=C(OC(C(F)(F)F)C(F)(F)F)N1CCC2(CC1)CN(Cc1cccc(N3CCCC3)c1)C2 [Example 94, 1,1,1,3,3,3-Hexafluoropropan-2-yl 2-(3-(pyrrolidin-1-yl)benzyl)-2,7-diazaspiro[3.5]nonane-7-carboxylate] | ### (### is ≥75%) | ### (### is ≥75%) |  |
| COc1cccc(CN2CC3(CCN(C(=O)OC(C(F)(F)F)C(F)(F)F)CC3)C2)c1 [Example 87, 1,1,1,3,3,3-Hexafluoropropan-2-yl 2-(3-methoxybenzyl)-2,7-diazaspiro[3.5]nonane-7-carboxylate] | ### (### is ≥75%) | ### (### is ≥75%) |  |
| O=C(OC(C(F)(F)F)C(F)(F)F)N1CC2(CCN(Cc3ccc(N4CCOCC4)cc3Cl)CC2)C1 [Example 70, 1,1,1,3,3,3-Hexafluoropropan-2-yl 7-(2-chloro-4-morpholinobenzyl)-2,7-diazaspiro[3.5]nonane-2-carboxylate] | ### (### is ≥75%) | ### (### is ≥75%) |  |
| CCN1CC2(CCN(c3cc(Cl)ccc3CN3CCN(C(=O)OC(C(F)(F)F)C(F)(F)F)CC3)C2)C1 [Example 173, 1,1,1,3,3,3-Hexafluoropropan-2-yl 4-(4-chloro-2-(2-ethyl-2,6-diazaspiro[3.4]octan-6-yl)benzyl)piperazine-1-carboxylate] | # (# is ≤25%) | ### (### is ≥75%) |  |
| O=C(OC(C(F)(F)F)C(F)(F)F)N1CCC2(CC1)CN(Cc1cccc(C(F)(F)F)c1)C2 [Example 89, 1,1,1,3,3,3-Hexafluoropropan-2-yl 2-(3-(trifluoromethyl)benzyl)-2,7-diazaspiro[3.5]nonane-7-carboxylate] | ### (### is ≥75%) | ### (### is ≥75%) |  |
